Values of other authors as cited in PMC11505029, “Isatin Bis-Imidathiazole Hybrids Identified as FtsZ Inhibitors with On-Target Activity Against Staphylococcus aureus” (Antibiotics, 2024).

Tests used:
Set-up in all cases: method as in PMID 36144518
C. albicans ATCC 10231 = conditions: 100 μM; mean ± SD; cited from earlier work
[1] = tested on: Vero cell line (ATCC CCL-81); conditions: 100 μM; mean ± SD; cited from earlier work
S. aureus ATCC 25923 = conditions: cited from earlier work
E. coli ATCC 25922 = conditions: 100 μM; mean ± SD; cited from earlier work

**Q.** For `COc1ccc2c(c1)C(c1c(Cl)nc3sccn13)(c1c(Cl)nc3sccn13)C(=O)N2` [Compound 6k], which “Microbial growth, C. albicans” value (C. albicans ATCC 10231) is on record?
**A.** 104.1 ± 1.9%

**Q.** And the “Cell proliferation, Vero” value [1]?
**A.** 70.9 ± 5.6%

**Q.** And the “Microbial growth, S. aureus” value (S. aureus ATCC 25923; 100 μM, mean ± SD)?
**A.** 43.4 ± 5.6%

**Q.** And the IC50 (S. aureus ATCC 25923; S. aureus, lead compounds)?
**A.** 80 µM

**Q.** What about the “Microbial growth, E. coli” value (E. coli ATCC 25922) of the same compound?
**A.** 102.7 ± 2.4%
